The structures appear in SMILES notation. Structures can show the parent of a compound that is named as a salt.

The test concerns the target T1, human recombinant ENPP1 (Homo sapiens, UniProt P22413).
T1 construct: purchased R & D systems
T1 sequence (P22413 1-925): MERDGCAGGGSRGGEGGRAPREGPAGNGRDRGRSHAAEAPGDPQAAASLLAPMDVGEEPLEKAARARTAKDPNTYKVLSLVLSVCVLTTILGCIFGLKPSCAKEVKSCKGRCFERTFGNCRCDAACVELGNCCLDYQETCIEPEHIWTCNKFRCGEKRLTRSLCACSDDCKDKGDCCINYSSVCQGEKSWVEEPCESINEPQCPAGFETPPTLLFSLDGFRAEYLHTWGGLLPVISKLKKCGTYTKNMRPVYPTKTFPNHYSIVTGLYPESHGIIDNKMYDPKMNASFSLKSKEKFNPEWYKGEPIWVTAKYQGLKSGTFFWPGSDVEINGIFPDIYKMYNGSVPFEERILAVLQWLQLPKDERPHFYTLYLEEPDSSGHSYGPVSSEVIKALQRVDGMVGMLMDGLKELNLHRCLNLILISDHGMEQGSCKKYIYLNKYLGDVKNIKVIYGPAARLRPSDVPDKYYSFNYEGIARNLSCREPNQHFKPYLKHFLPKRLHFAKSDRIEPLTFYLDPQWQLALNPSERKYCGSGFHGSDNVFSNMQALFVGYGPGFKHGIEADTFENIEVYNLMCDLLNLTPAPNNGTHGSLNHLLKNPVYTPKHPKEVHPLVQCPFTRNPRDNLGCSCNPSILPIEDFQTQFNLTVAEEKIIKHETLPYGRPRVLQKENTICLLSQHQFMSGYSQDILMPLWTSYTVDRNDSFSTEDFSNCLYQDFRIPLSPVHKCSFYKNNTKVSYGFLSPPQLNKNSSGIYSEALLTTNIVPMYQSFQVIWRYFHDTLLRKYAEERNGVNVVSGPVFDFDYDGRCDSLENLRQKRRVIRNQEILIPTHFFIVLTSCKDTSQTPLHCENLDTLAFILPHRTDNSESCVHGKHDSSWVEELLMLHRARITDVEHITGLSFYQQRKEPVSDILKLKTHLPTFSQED
Description: ENPP1 enzyme assay with cGAMP substrate (AMP-Glo luminescence). The test is classed as biochemical. The settings on record: human recombinant ENPP1 3 ng/reaction, cGAMP 5 μM, 37° C. 90 minutes, read-out: Enzymatic activity (ENPP1 IC50). The procedure: ENPP1 hydrolyzes nucleotides or nucleotide derivatives to produce nucleoside -5′-monophosphate and pyrophosphate. in addition, ENPP1 hydrolyzes 2′,3′-cGAMP to produce 5′-adenosine monophosphate (AMP) and 5′-guanosine monophosphate (GMP). AMP produced from the reaction is measured using the AMP-Glo® kit (Promega). The AMP-Glo® kit contains two reagents. The first reagent terminates the AMP-producing enzymatic reaction, removes ATP and converts the produced AMP into ADP. The second reagent converts ADP to ATP which is used to generate luminescence in the luciferase reaction. The amount of luminescence measured is proportional to the amount of AMP produced by ENPP1.
The final reaction mixture contains 50 mM Tris (pH 8.5) buffer, 250 mM NaCl, 0.5 mM. CaCl2, 1 μM ZnCl2, 5% glycerol and 1% DMSO. […] The reaction was initiated by addition of cGAMP (at a final concentration of 5 μM) and reacted at 37° C. for 90 minutes. At the end of the reaction, 10 μl of the AMP-Glo first reagent was added to stop the reaction and the result was stored at room temperature for […]. After storage, 20 μl of an AMP detection solution (a mixture of AMP-Glo II reagent and Kinase-Gio at a ratio of 1:100) was added and stored at room. temperature for 1 hour. Luminescence signals were measured using a Victor® plate reader (Perkin Elmer). The maximal activity control (containing enzymes and substrates only in the presence of 1% DMSO; MAX) and the minimal activity control (containing substrates and 1% DMSO; MIN) were evaluated simultaneously. In each experiment, serially diluted reference ENPP1 inhibitors were tested together. IC50, indicating % residual activity versus compound concentration was determined by fitting inhibition curves using the 3-parameter analysis of GraphPad Prism® software. Serially diluted samples of one compound were tested two or more times and an average IC50 of each compound was calculated.
Consider `COc1cc2c(-c3ccc(CNS(N)(=O)=O)cc3)nn(C)c(=O)c2cc1OC` [Compound No. 108, N-(4-(6,7-dimethoxy-3-methyl-4-oxo-3,4-dihydrophthalazin-1-yl)benzyl)sulfamide hydrochloride], for which the IC50 (as a rule, the concentration at which inhibition is half-maximal) lay within 1 to 10 µM.

For `CC(C)(C)OC(=O)NCc1ccc(-c2nn(Cc3ccccc3)c(=O)c3ccccc23)cc1` [Compound No. 13], the IC50 was greater than 10 µM.

On to `NCc1ccc(-c2nn(Cc3ccccc3)c(=O)c3ccccc23)cc1` [Compound No. 41, 4-(4-aminomethyl)phenyl)-2-benzylphthalazin-1(2H)-one hydrochloride], for which the IC50 is 1 to 10 µM.

As to `COc1cc2c(Cc3ccc(N(C)S(=O)(=O)NC(=O)OC(C)(C)C)cc3)n[nH]c(=O)c2cc1OC` [Example 174, tert-butyl N-(4-((6,7-dimethoxy-4-oxo-3,4-dihydrophthalazin-1-yl)methyl)phenyl)-N-methylsulfamoyl carbamate], the IC50 was greater than 10 µM.

Take `CN(c1ccc(Cc2n[nH]c(=O)c3ccccc23)cc1)S(N)(=O)=O` [Example 184, N-methyl-N-(4-((4-oxo-3,4-dihydrophthalazin-1-yl)methyl)phenyl)sulfamide hydrochloride]: the IC50 was in the range of 1 to 10 µM.

For the compound `COc1cc2c(-c3ccc4c(c3)CN(S(N)(=O)=O)CC4)n[nH]c(=O)c2cc1OC` [Compound No. 122, 7-(6,7-dimethoxy-4-oxo-3,4-dihydrophthalazin-1-yl)-3,4-dihydroisoquinoline-2(1H)-sulfamide], the IC50 was less than 1 µM.

As to `CC(NS(N)(=O)=O)c1ccc(-c2n[nH]c(=O)c3ccccc23)cc1` (centres unmarked) [Compound No. 123, N-(1-(4-(4-oxo-3,4-dihydrophthalazin-1-yl)phenyl)ethyl)sulfamide hydrochloride], the IC50 is less than 1 µM.

Turning to `COc1cc2c(Cc3ccc(N(C)S(N)(=O)=O)cc3)n[nH]c(=O)c2cc1OC` [Example 185, N-(4-((6,7-dimethoxy-4-oxo-3,4-dihydrophthalazin-1-yl)methyl)phenyl)-N-methylsulfamide hydrochloride], the IC50 was less than 1 µM.

Take `Cn1nc(-c2ccc(CNS(N)(=O)=O)cc2)c2ccccc2c1=O` [Compound No. 97, N-(4-(3-methyl-4-oxo-3,4-dihydrophthalazin-1-yl)benzyl)sulfamide hydrochloride]: the IC50 was less than 1 µM.

With `COc1cc2c(-c3cccc(CNS(N)(=O)=O)c3)n[nH]c(=O)c2cc1OC` [Compound No. 109, N-(3-(6,7-dimethoxy-4-oxo-3,4-dihydrophthalazin-1-yl)-benzyl) sulfamide], the IC50 lay within 1 to 10 µM.

For the compound `COc1ccc2c(-c3ccc(CNC(=O)OC(C)(C)C)cc3)nn(C)c(=O)c2c1` [Compound No. 18, tert-butyl (4-(6-methoxy-3-methyl-4-oxo-3,4-dihydrophthalazin-1-yl)benzyl)carbamate], the IC50 was greater than 10 µM.

Turning to `CC(C)(C)OC(=O)NS(=O)(=O)NCc1ccc(-c2nn(Cc3ccccc3)c(=O)c3ccccc23)cc1` [Compound No. 70], the IC50 was greater than 10 µM.

Turning to `COc1cc2c(-c3ccc(CN(C)S(N)(=O)=O)c(C(F)(F)F)c3)n[nH]c(=O)c2cc1OC` [Compound No. 120, hydrochloride], the IC50 is greater than 10 µM.

Regarding `O=c1[nH]nc(Cc2ccccc2)c2ccccc12` [Compound No. 143, 4-benzylphthalazin-1(2H)-one], the half-maximal inhibitory concentration (IC50) was greater than 10 µM.

Turning to `COc1cc2c(-c3ccc(CNS(N)(=O)=O)cc3)n[nH]c(=O)c2cc1OC` [Compound No. 104, N-(4-(6,7-dimethoxy-4-oxo-3,4-dihydrophthalazin-1-yl)benzyl)sulfamide hydrochloride], the IC50 is less than 1 µM.

For the compound `Cc1ccc(S(=O)(=O)NCc2ccc(-c3n[nH]c(=O)c4ccccc34)cc2)cc1` [Example 197, 4-methyl-N-(4-(4-oxo-3,4-dihydrophthalazin-1-yl)benzyl)benzenesulfonamide], the IC50 was greater than 10 µM.

For `CC(C)(C)OC(=O)NS(=O)(=O)NCc1ccc(-c2nn(Cc3ccc(F)cc3)c(=O)c3ccccc23)cc1` [Compound No. 71, tert-butyl (N-(4-(3-(4-fluorobenzyl)-4-oxo-3,4-dihydrophthalazin-1-yl)benzyl)sulfamoyl)carbamate], the IC50 is greater than 10 µM.

On to `CCn1nc(-c2ccc(CN)cc2)c2ccccc2c1=O` [Compound No. 38, 4-(4-(aminomethyl)phenyl)-2-ethylphthalazin-1(2H)-one hydrochloride], for which the IC50 was less than 1 µM.

Consider `COc1cc2c(Cc3cccc(NC(=O)OC(C)(C)C)c3)nn(C)c(=O)c2cc1OC` [Compound No. 146, tert-butyl (3-((6,7-dimethoxy-3-methyl-4-oxo-3,4-dihydrophthalazin-1-yl)methyl)phenyl)carbamate], for which the IC50 was greater than 10 µM.

In the case of `COc1cc2c(Nc3cccc(NS(N)(=O)=O)c3)nn(C)c(=O)c2cc1OC` [Compound No. 141, N-(3-(6,7-dimethoxy-3-methyl-4-oxo-3,4-dihydrophthalazin-1-yl)-amino)phenyl)sulfamide hydrochloride], the IC50 was in the range of 1 to 10 µM.

As to `CCn1nc(-c2ccc(CNC(=O)OC(C)(C)C)cc2)c2ccccc2c1=O` [Compound No. 10, tert-butyl (4-(3-ethyl-4-oxo-3,4-dihydrophthalazin-1-yl)benzyl)carbamate], the IC50 was greater than 10 µM.

For the compound `NS(=O)(=O)NCc1ccc(-c2n[nH]c(=O)c3ccccc23)cc1` [Compound No. 96, N-(4-(4-oxo-3,4-dihydrophthalazin-1-yl)benzyl)sulfamide hydrochloride], the IC50 is less than 1 µM.

With `COc1cc2c(-c3ccc(CN)cc3)n[nH]c(=O)c2cc1OC` [Compound No. 48, 4-(4-(aminomethyl)phenyl)-6,7-dimethoxyphthalazin-1(2H)-one hydrochloride], the IC50 was less than 1 µM.

Take `Cn1nc(-c2ccc3c(c2)CCN(S(=O)(=O)NC(=O)OC(C)(C)C)C3)c2ccccc2c1=O` [Compound No. 84, tert-butyl ((6-(3-methyl-4-oxo-3,4-dihydrophthalazin-1-yl)-3,4-dihydroisoquinolin-2(1H)-yl)sulfonyl)carbamate]: the IC50 is greater than 10 µM.

For `COc1cc2c(Cc3cccc(NS(=O)(=O)NC(=O)OC(C)(C)C)c3)n[nH]c(=O)c2cc1OC` [Example 167, tert-butyl (N-(3-((6,7-dimethoxy-4-oxo-3,4-dihydrophthalazin-1-yl)methyl)phenyl)sulfamoyl)carbamate], the IC50 was greater than 10 µM.

With `COc1cc2c(Cc3cccc(NS(N)(=O)=O)c3)nn(C)c(=O)c2cc1OC` [Example 179, N-(3-((6,7-dimethoxy-3-methyl-4-oxo-3,4-dihydrophthalazin-1-yl)methyl)phenyl)sulfamide hydrochloride], the IC50 was greater than 10 µM.

Consider `CC(C)(NS(N)(=O)=O)c1ccc(-c2n[nH]c(=O)c3ccccc23)cc1` [Compound No. 125, N-(2-(4-(4-oxo-3,4-dihydrophthalazin-1-yl)phenyl)propan-2-yl)sulfamide hydrochloride], for which the IC50 fell in the range of 1 to 10 µM.

For the compound `COc1cc2c(Cc3ccc(N)cc3)nn(C)c(=O)c2cc1OC` [Example 161, 4-(4-aminobenzyl)-6,7-dimethoxy-2-methylphthalazin-1(2H)-one hydrochloride], the IC50 was greater than 10 µM.

In the case of `Cn1nc(-c2cccc(CNS(=O)(=O)NC(=O)OC(C)(C)C)c2)c2ccccc2c1=O` [Compound No. 64, tert-butyl N-(3-(3-methyl-4-oxo-3,4-dihydrophthalazin-1-yl)benzyl)sulfamoyl carbamate], the IC50 was greater than 10 µM.

Values taken from patent publication US20230159469A1, “NOVEL PHTHALAZINE DERIVATIVE HAVING ECTONUCLOEOTIDE PYROPHOSPHATASE/PHOSPHODIESTE RASE INHIBITORY ACTIVITY, AND USE THEREOF” (TXINNO BIOSCIENCE INC., priority 2020, published 2023).
